The text below walks through data of paper PMC9819389, “Antiandrogenic and Estrogenic Activity Evaluation of Oxygenated and Nitrated Polycyclic Aromatic Hydrocarbons Using Chemically Activated Luciferase Expression Assays” (International Journal of Environmental Research and Public …, 2022).

Entries after “also recorded” stand apart in the source; their conditions may differ. Read-outs that look alike come from different tables or passages of the source.

One experiment concerns the target T1, human ER (Homo sapiens, UniProt P03372).
T1 sequence (P03372 1-595): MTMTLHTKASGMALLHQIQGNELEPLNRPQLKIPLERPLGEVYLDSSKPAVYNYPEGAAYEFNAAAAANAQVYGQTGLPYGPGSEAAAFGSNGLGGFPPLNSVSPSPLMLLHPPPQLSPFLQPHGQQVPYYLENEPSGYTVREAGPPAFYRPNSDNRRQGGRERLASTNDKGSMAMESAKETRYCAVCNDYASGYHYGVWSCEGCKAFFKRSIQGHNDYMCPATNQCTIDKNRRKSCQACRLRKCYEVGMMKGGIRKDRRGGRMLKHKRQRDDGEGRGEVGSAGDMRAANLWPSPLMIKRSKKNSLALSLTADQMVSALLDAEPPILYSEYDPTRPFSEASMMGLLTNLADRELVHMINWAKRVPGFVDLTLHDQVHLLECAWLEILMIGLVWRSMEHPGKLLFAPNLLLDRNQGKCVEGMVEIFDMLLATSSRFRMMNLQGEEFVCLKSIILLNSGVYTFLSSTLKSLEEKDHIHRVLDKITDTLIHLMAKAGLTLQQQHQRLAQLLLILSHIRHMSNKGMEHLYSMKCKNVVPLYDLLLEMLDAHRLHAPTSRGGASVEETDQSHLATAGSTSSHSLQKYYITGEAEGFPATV
Description: ER-CALUX assay, estrogenic activity, U2OS-luc cells. Type of experiment: cell-based. Set-up: host or cells: human U2OS-luc (osteoblastic osteosarcoma) cells. The conditions noted are these: for EC50 / REPmol (EC50): present study; for EC50: 24 h exposure; for REPmol (EC50): molar relative potency to E2, EC50-based.

In another experiment the target is T2, human AR (Homo sapiens, UniProt P10275).
T2 sequence (P10275 1-920): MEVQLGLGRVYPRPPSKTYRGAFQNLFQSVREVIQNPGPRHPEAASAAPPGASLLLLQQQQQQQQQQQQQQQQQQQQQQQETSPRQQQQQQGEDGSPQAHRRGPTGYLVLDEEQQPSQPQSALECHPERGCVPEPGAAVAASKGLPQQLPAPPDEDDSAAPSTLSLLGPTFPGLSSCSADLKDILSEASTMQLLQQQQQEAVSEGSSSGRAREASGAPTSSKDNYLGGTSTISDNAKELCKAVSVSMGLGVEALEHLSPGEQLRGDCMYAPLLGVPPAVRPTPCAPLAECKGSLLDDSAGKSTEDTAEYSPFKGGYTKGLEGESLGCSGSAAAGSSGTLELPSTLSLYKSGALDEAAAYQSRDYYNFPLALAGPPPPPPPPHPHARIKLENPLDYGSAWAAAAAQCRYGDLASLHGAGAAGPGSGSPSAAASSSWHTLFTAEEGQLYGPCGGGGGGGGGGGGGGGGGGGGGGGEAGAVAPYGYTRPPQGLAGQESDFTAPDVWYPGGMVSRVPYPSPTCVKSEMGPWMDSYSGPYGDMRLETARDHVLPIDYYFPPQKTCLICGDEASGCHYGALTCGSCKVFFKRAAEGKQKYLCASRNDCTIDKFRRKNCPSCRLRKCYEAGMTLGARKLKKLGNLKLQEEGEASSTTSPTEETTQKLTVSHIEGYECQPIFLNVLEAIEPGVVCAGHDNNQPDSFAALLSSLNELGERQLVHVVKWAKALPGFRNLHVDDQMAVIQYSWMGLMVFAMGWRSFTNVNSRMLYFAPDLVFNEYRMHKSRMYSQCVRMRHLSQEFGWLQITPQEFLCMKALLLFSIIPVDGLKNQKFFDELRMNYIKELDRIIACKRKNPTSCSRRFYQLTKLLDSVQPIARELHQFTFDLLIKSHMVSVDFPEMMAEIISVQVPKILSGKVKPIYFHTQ
The experiment can be described thus: AR-CALUX assay, antiandrogenic (AR antagonistic) activity, U2OS-luc cells. Type of experiment: cell-based. The conditions noted are these: for REPmol (IC25): molar relative potency to flutamide, IC25-based. Details: host or cells: human U2OS-luc (osteoblastic osteosarcoma) cells. The method, then:
The AR- and ER-CALUX assays for the polycyclic aromatic compounds were evaluated according to previously described methods, which used human U2OS-luc cells developed by BioDetection Systems b.v. (Amsterdam, The Netherlands). The cells are transfected stably with human AR and ER, respectively, and a luciferase reporter gene under their respective steroid receptor response elements. […] They were incubated at 37 °C in a humidified atmosphere containing 5% carbon dioxide. […] The medium was then removed, and the cells were lysed. A solution of luciferin was then added, and the luminescence intensity was measured with an ARVO™ X3 luminometer from PerkinElmer (Waltham, MA, USA). A sigmoid dose–response curve for a chemical was fitted to the Hill equation given by Equation (1) using SigmaPlot 11.0 from Systat Software Inc. (San Jose, CA, USA). y = min + (max − min)/(1 + (a1/x)^a^2)(1) where, y and x are the measured luciferase induction level and compound concentration, respectively. […] The REP values in mol base were obtained by dividing the ICs or ECs of the standard by the ICs or ECs of target compound, respectively.
All measurements were conducted in triplicate wells. They were repeated twice and trice in the AR- and ER-CALUX assays, respectively, for each concentration in dose–response curve. […] Cell viability was confirmed using 3-(4,5-dimethylthiazol-2-yl)-2,5-diphenyltetrazolium bromide (MTT) assay. If the cell viability was <80% in the positive control, the corresponding exposure dose was considered cytotoxic and excluded from the calculation.

The subject of a further experiment is AR. The conditions noted are these: previous study; the standard itself, no reference given; cited from earlier work.
[1] abbreviates: present study, 24 h exposure with 100 pM DHT (EC50 level).

With `O=[N+]([O-])c1cc([N+](=O)[O-])c2ccc3cccc4ccc1c2c43` [1,3-DNPy, 1,3-dinitropyrene], on human ER, the EC50 result is “U (< 10% response of 1 nM E2)” and the “REPmol (EC50)” value was “U (< 10% response of 1 nM E2)”. The same compound had an IC50 against human AR of 210 nM. Besides, the “inhibition of AR-mediated luciferase activity” value on human AR (coexposure to DHT at 10 nM (100 × EC50), compound at 3 μM) is reported as 33%. The “mode of AR inhibition” value on human AR (from coexposure to 10 nM DHT) was “noncompetitive”. In addition, the IC25 on human AR (setting [1]) stood at 0.13 µM. For the same compound, at human AR (present study), the “REPmol (IC25)” value turned out to be 0.88.

Turning to `O=[N+]([O-])c1ccc2ccc3ccc([N+](=O)[O-])c4ccc1c2c34` [1,8-DNPy, 1,8-dinitropyrene], at human ER, the “REPmol (EC50)” value is recorded as “U (< 10% response of 1 nM E2)”. At human AR (present study), the “REPmol (IC25)” value was 0.91.

On human AR (setting [1]), `O=[N+]([O-])c1cc2c3ccccc3ccc2c2ccccc12` [6-NChr, 6-nitrochrysene] yielded an IC25 of 0.039 µM. In addition, the “REPmol (IC25)” value at human AR (present study) was determined as 3.2. Besides, the IC50 at human AR (read-out: IC50) stood at 88 nM.

On human AR (setting [1]), `O=[N+]([O-])c1ccc2c(c1)-c1cccc3cccc-2c13` [8-NFA, 8-Nitrofluoranthene] showed an IC25 of 0.098 µM. Also, at human AR (present study), the “REPmol (IC25)” value is recorded as 1.3. Further, the IC50 on human AR (read-out: IC50) turned out to be 270 nM.

As for `O=C1c2cccc3ccc4ccc5cccc1c5c4c23` [BPO, 6H-benzo[cd]pyren-6-one], on human ER, the EC50 result was “U (key: U: < 10% response of 1 nM E2; nd: not detected)” and the “REPmol (EC50)” value is reported as “U (key: U: < 10% response of 1 nM E2; nd: not detected)”. In addition, the “antiandrogenic activity (in words)” value at human AR (present study) is on record as “not observed”.

Turning to `O=C1c2ccccc2-c2ccc3ccccc3c21` [B[a]FO, 11H-Benzo[a]fluoren-11-one], at human ER (read-out: EC50), the EC50 stood at 4.8 µM. The compound further came in with a concentration for an effect of 25% (IC25) against human AR (setting [1]) of 0.30 µM. Moreover, on human AR (present study), the “REPmol (IC25)” value came to 0.43. Further, at human AR (read-out: IC50), the IC50 came to 670 nM.

Turning to `O=C1c2ccccc2-c2cc3ccccc3cc21` [B[b]FO, 11H-benzo[b]fluoren-11-one], the EC50 at human ER (read-out: EC50) was 4.8 µM. Besides, on human AR (setting [1]), the IC25 turned out to be 0.15 µM. For the same compound, at human AR (present study), the “REPmol (IC25)” value amounted to 0.81. In addition, the IC50 at human AR (read-out: IC50) is 530 nM.

For the compound `c1ccc2c(c1)ccc1ccc3ccccc3c12` [B[c]Phe, Benzo[c]phenanthrene], on human ER (at 8 μM), the “activation (level of the response to 1 nM E2)” value stood at 27% activation at 8 μM. This compound gave an IC25 against human AR (setting [1]) of 0.11 µM. Further, the “REPmol (IC25)” value at human AR (present study) is recorded as 1.0. The IC50 on human AR (read-out: IC50) came out at 370 nM.

As for `c1ccc2c(c1)cc1ccc3cc4ccccc4c4ccc2c1c34` [DB[a,i]P, dibenzo[a,i]pyrene], at human ER (at 3 μM), the “activation (level of the response to 1 nM E2)” value came out at 14% activation at 3 μM. The “antiandrogenic activity (in words)” value at human AR (present study) was “not observed; also recorded: inactive”.

Turning to `c1ccc2c(c1)cc1ccc3cccc4c5ccccc5c2c1c34` [DB[a,l]P, dibenzo[a,l]pyrene], on human ER, the EC50 result was “U (key: U: < 10% response of 1 nM E2; nd: not detected)” and the “REPmol (EC50)” value is recorded as “U (key: U: < 10% response of 1 nM E2; nd: not detected)”. This compound also showed an IC25 against human AR (setting [1]) of 3.6 µM. In addition, the “REPmol (IC25)” value at human AR (present study) was determined as 0.037. Moreover, the IC50 at human AR (read-out: IC50) came out at 8900 nM.

With `CC(C)C(=O)Nc1ccc([N+](=O)[O-])c(C(F)(F)F)c1` [Flutamide, reference compound], the “REPmol, U2OS” value in the experiment on AR is 1.

As to `O=C1c2ccccc2C(=O)c2cc3ccccc3cc21` [NCQ, 5,12-naphthacenequinone], on human ER, the EC50 result is “U (< 10% response of 1 nM E2)” and the “REPmol (EC50)” value was “U (< 10% response of 1 nM E2)”. For the same compound, on human AR (present study), the “antiandrogenic activity (in words)” value is given as “not observed”.

For the compound `O=C1C=Cc2ccccc2C1=O` [NphQ, 1,2-naphthoquinone], the “antiandrogenic activity (in words)” value on human AR (present study) is recorded as “not observed”.

In the case of `O=C1C=Cc2cccc3cccc1c23` [PhO, Phenalenone], at human ER, the EC50 result is recorded as “U ^j (< 10% response of 1 nM E2)” and the “REPmol (EC50)” value is “U (< 10% response of 1 nM E2)”. The IC25 against human AR (setting [1]) stood at 0.84 µM. In addition, the “REPmol (IC25)” value at human AR (present study) is listed as 0.12. Besides, at human AR (read-out: IC50), the IC50 came out at 2000 nM.

With cyclopenta[cd]pyrene [CPP], the IC25 on human AR (setting [1]) stood at 0.58 µM. Besides, the IC50 on human AR (present study, 24 h exposure with 100 pM DHT (EC50 level), read-out: IC50) was 1300 nM. The “REPmol (IC25)” value at human AR (present study) worked out at 0.14.

As usually defined, the EC50 is the concentration giving half of the maximal effect. By IC50 is commonly meant the point on the concentration scale where inhibition reaches its midpoint. By IC25 is commonly meant the concentration at which the effect reaches the 25% level. Read a low IC25 as an effect from little substance.
